Data published in patent publication US20220062233A1 (The Board of Trustees of the Leland Stanford Junior …, priority 2018, published 2022).

Key:
mutant HTT [1] = assay: Mutant HTT assay in induced pluripotent stem cells (iPSC); format: cell-based, human; details: HD patient iPSCs, one day incubation; class symbols; read-out: iPSC IC20 (nM) mHTT
Description: C. Mutant HTT Assay in Induced Pluripotent Stem Cells (iPSC) a. Cell Culturing and Compound Treatment
Huntington's disease patient iPSCs (ND50036 from NINDS) were detached into single cells by Accutase (25058CI from Corning), counted and plated on a 24-well plate coated with Matrigel (354277 from Corning) at density of 7,000 cells/well. After 48 hrs, compounds were added to the cell culture medium mTeSR1 (85850 from StemCell Technologies) and the cells were incubated for one day. The medium was then removed, and the cells were washed with PBS. After all liquid was removed, the plate was placed at −80° C. overnight. Lysis buffer [30 mM Tris-HCl (pH 8.0), 5 mM NaCl, 0.1% Triton X-100] with the complete proteinase inhibitor cocktail (5892791001 from Sigma-Aldrich) was then added to the cells. Cell samples were lysed on an orbital plate shaker at 4° C. at 700 rpm for 30 min. The supernatants from spinning (14 k rpm for 10 min) were collected. The protein concentrations were determined by BCA assay (23225 from Pierce, ThermoFisher). […]
b. Detection of Mutant HTT Protein
Equal amounts of protein lysate collected from each sample were added to a 96-well plate that had been coated with a human HTT specific monoclonal antibody. After washing away any unbound substances, a biotinylated anti-human mutant HTT specific detection antibody was added. Streptavidin-horseradish peroxidase was subsequently added, followed by TMB Substrate Solution, which yielded a blue product that turns yellow when the Stop Solution was added. The intensity of the color measured was in proportion to the amount of mutant HTT bound in the initial step. The mutant HTT values are then interpolated from a standard curve.

[2] = system: Huntington's disease patient iPSCs (ND50036); assay: iPSC viability at IC20; format: cell-based, human; details: at the concentration of IC20
mutant HTT [3] = assay: Mutant HTT assay in lymphoblastoid cells (LBC), Western blot; format: cell-based, human; details: read-out: LBC IC20 (nM) mHTT, 3 days compound treatment
Description: (§1) B. Mutant and Wild-Type HTT Assay in Lymphoblastoid Cells (LBC)
(§2) a. Cell Culturing and Compound Treatment
(§3) Lymphoblastoid cells derived from a Huntington's disease patient with 250 CAG repeats in the mutant HTT allele (GM14044 from Coriell Institute) were cultured in RPMI 1640 (Corning Cellgro, 10-040-CV) containing fetal bovine serum (Atlanta Biologicals, S11150). 4×10^5 cells were seeded on a 24-well plate and incubated with testing compound for 3 days. The cell suspension was then transferred to a 1.5 ml Eppendorf tube. Cells were collected by centrifugation and washed once with PBS. After all liquid was removed, the cell pellet was placed at −80° C. for at least 10 minutes. Lysis buffer [30 mM Tris-HCl (pH 8.0), 5 mM NaCl, 0.1% Triton X-100] with the proteinase inhibitor cocktail (P8340 from Sigma-Aldrich) was then added to the cells. Following centrifugation (14 k rpm for 15 min at 4° C.), the supernatant was collected. The protein concentrations were determined by BCA assay (Pierce, ThermoFisher).
(§4) Equal amounts of protein were loaded onto 4-12% gel (Invitrogen, WG1403A). After electrophoresis, the gels were transferred to nitrocellulose membranes by wet transfer at 72V for 3 hrs. […] The protein levels of mutant HTT, wild-type HTT, TBP, and tubulin were determined by immunoblotting with anti-polyQ specific antibody (clone MW1), anti-Huntingtin antibody (Abcam, ab45169), anti-TBP antibody (Sigma, T1827) and anti-alpha tubulin antibody (Sigma, T9026). Blots were imaged on a Li-Cor Odyssey infrared imager. The band intensities were determined by Li-Cor Odyssey software.

M2-8 cells = assay: M2-8 Cell viability Assay; format: cell-based; details: at the concentration of 1000 nM
[4] = system: Lymphoblastoid cells (GM14044); assay: LBC cell viability (Cell Titer-Glo); format: cell-based, human; details: at the concentration of IC20, 3-day compound treatment
Description: Cell viability was determined by Cell Titer-Glo reagent (Promega, PRG9243). After 3-day compound treatment, 15 μl of cell suspension was taken out from plate and incubated with 10 μl of CTG reagent. The values of reaction mixture were detected by Tecan.

[5] = molecular target: T1, interaction between Supt4h and NGN (subunit of Supt5h) (Homo sapiens, UniProt O00267+P63272); assay: Split Gaussia luciferase complementation assay (M2-8 Luciferase); format: cell-based; details: M2-8 cells
T1 construct: expressed in transfected cells
Method in brief: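 HEK293-derived M2-8 cells inducibly express Supt4h-Gluc1 and NGN-Gluc2 fragments (stabilizing mutations) on RheoSwitch ligand addition; ligand plus compound added 24 h after plating and left 24 h. Cells frozen, lysed with 10 μg/ml native coelenterazine, 1 h room temperature dark; complemented luciferase luminescence read.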

wild-type HTT = assay: Wild-type HTT assay in lymphoblastoid cells (LBC), Western blot; format: cell-based, human; details: 3 days compound treatment, read-out: LBC IC20 (nM) wtHTT
Description: as §1, §2, §3, §4

Compound | IC20 (mutant HTT [1]) [nM] | iPSC viability at IC20 [2] | IC20 (mutant HTT [3]) [nM] | M2-8 Cell viability (M2-8 cells) | LBC viability at IC20 [4] | IC50 [5] [µM] | IC20 (wild-type HTT) [nM]
C[C@@H](N[C@@H]1CCCc2c1[nH]c1ccc(Br)cc21)c1ccccc1 (single isomer, unassigned) [Compound 13] | < 100 | + (cell viability is greater than 75% at the concentration of IC20) | 101 to 300 | + (cell viability is greater than 50% at the concentration of 1000 nM) | * (cell viability is greater than 60% at the concentration of IC20) | ≤ 0.1 | > 1000
C=Cc1ccc2[nH]c3c(c2c1)CCC[C@H]3NCc1ccccc1 [Compound 45] | < 100 | + (cell viability is greater than 75% at the concentration of IC20) | < 100 | + (cell viability is greater than 50% at the concentration of 1000 nM) | * (cell viability is greater than 60% at the concentration of IC20) | ≤ 0.1 | > 1000
OC1(c2ccc(CN[C@@H]3CCCc4c3[nH]c3ccc(Br)cc43)cc2)CC1 [Compound 50, (R)-1-(4-(((6-bromo-2,3,4,9-tetrahydro-1H-carbazol-1-yl)amino)methyl)phenyl) cyclopropan-1-ol] | < 100 | + (cell viability is greater than 75% at the concentration of IC20) | < 100 | + (cell viability is greater than 50% at the concentration of 1000 nM) | * (cell viability is greater than 60% at the concentration of IC20) | ≤ 0.1 | > 500
OC1(c2ccc(CN[C@@H]3CCCc4c3[nH]c3ccc(Br)nc43)cc2)CC1 [Compound 71] | < 100 | + (cell viability is greater than 75% at the concentration of IC20) |  | + (cell viability is greater than 50% at the concentration of 1000 nM) |  | ≤ 0.1 | 
CC(C)(O)c1ccc(CN[C@@H]2CCCc3c2[nH]c2ccc(Br)nc32)s1 [Compound 66] | < 100 | + (cell viability is greater than 75% at the concentration of IC20) | < 100 | + (cell viability is greater than 50% at the concentration of 1000 nM) | * (cell viability is greater than 60% at the concentration of IC20) | ≤ 0.1 | > 1000
OC1(c2ccc(CN[C@@H]3CCCc4c3[nH]c3ccc(Br)nc43)s2)CC1 [Compound 70] | < 100 | + (cell viability is greater than 75% at the concentration of IC20) |  | + (cell viability is greater than 50% at the concentration of 1000 nM) |  | ≤ 0.1 | 
C[C@H](N[C@@H]1CCCc2c1[nH]c1ccc(Br)cc21)c1ccccc1 (single isomer, unassigned) [Compound 14] | < 100 | + (cell viability is greater than 75% at the concentration of IC20) | < 100 | + (cell viability is greater than 50% at the concentration of 1000 nM) | * (cell viability is greater than 60% at the concentration of IC20) | ≤ 0.1 | > 1000
Oc1ccc(CN[C@@H]2CCCc3c2[nH]c2ccc(Br)cc32)cc1 [Compound 60, (R)-4-(((6-bromo-2,3,4,9-tetrahydro-1H-carbazol-1-yl)amino)methyl)phenol] | < 100 | + (cell viability is greater than 75% at the concentration of IC20) | 101 to 300 | + (cell viability is greater than 50% at the concentration of 1000 nM) | * (cell viability is greater than 60% at the concentration of IC20) | ≤ 0.1 | > 1000
COC(C)(C)c1ccc(CN[C@@H]2CCCc3c2[nH]c2ccc(Br)cc32)cc1 [Compound 48, (R)-6-bromo-N-(4-(2-methoxypropan-2-yl)benzyl)-2,3,4,9-tetrahydro-1H-carbazol-1-amine] | < 100 | + (cell viability is greater than 75% at the concentration of IC20) | < 100 | + (cell viability is greater than 50% at the concentration of 1000 nM) | * (cell viability is greater than 60% at the concentration of IC20) | ≤ 0.1 | > 500
CC(C)(O)c1ccc(CN[C@@H]2CCCc3c2[nH]c2ccc(Br)nc32)cc1 [Compound 63] | < 100 | + (cell viability is greater than 75% at the concentration of IC20) | < 100 | + (cell viability is greater than 50% at the concentration of 1000 nM) | * (cell viability is greater than 60% at the concentration of IC20) | ≤ 0.1 | > 500
COCC(N[C@@H]1CCCc2c1[nH]c1ccc(Br)cc21)c1ccc(C(C)(C)O)cc1 (single isomer, unassigned) [Compound 52] | < 100 | + (cell viability is greater than 75% at the concentration of IC20) | < 100 | + (cell viability is greater than 50% at the concentration of 1000 nM) | * (cell viability is greater than 60% at the concentration of IC20) | ≤ 0.1 | > 500
OCc1ccc(CN[C@@H]2CCCc3c2[nH]c2ccc(Br)nc32)cc1 [Compound 65] | < 100 | + (cell viability is greater than 75% at the concentration of IC20) | 301 to 1000 | + (cell viability is greater than 50% at the concentration of 1000 nM) | * (cell viability is greater than 60% at the concentration of IC20) | ≤ 0.1 | > 1000
